Data: ChEMBL document CHEMBL3885881, “DrugMatrix”

Organism: Rattus norvegicus
Assay: DrugMatrix - Regimen: Daily Repeat
Type: toxicity, organism-based, Sprague-Dawley
Design: regimen Daily Repeat, gender Male, age 6-8 weeks
Conditions: in vivo, po, route oral GAVAGE, […]; for ABSOLUTE BASOPHIL / ABSOLUTE EOSINOPHIL / ABSOLUTE LYMPHOCYTE / ABSOLUTE MONOCYTE / ABSOLUTE SEGMENTED NEUTROPHIL / BASOPHIL / EOSINOPHIL / ERYTHROCYTE COUNT / HEMATOCRIT / HEMOGLOBIN / LEUKOCYTE COUNT / LYMPHOCYTE / MEAN CORPUSCULAR HEMOGLOBIN / MEAN CORPUSCULAR HEMOGLOBIN CONCENTRATION / MEAN CORPUSCULAR VOLUME / MONOCYTE / NEUTROPHIL / NUCLEATED RED BLOOD CELLS / PLATELET COUNT: tissue Blood; for ALANINE AMINOTRANSFERASE / ALBUMIN / ALKALINE PHOSPHATASE / ASPARTATE AMINOTRANSFERASE / BLOOD UREA NITROGEN / CARBON DIOXIDE / CHLORIDE / CHOLESTEROL / CREATINE PHOSPHOKINASE / CREATININE / GLUCOSE / LACTATE DEHYDROGENASE / LIPASE / PHOSPHORUS / POTASSIUM / SODIUM / TOTAL BILIRUBIN / TOTAL PROTEIN / URIC ACID: tissue Plasma
[1] = 0 mg/kg, 72 h, dose level Control, time 3 day
[2] = 0 mg/kg, 120 h, dose level Control, time 5 day
[3] = 100 mg/kg, 72 h, dose level M1, time 3 day

CC(C)(c1ccc(O)cc1)c1ccc(O)cc1 [BISPHENOL A]
ABSOLUTE BASOPHIL [1]: 0 CELLS/uL | ABSOLUTE EOSINOPHIL [1]: 33 CELLS/uL | ABSOLUTE LYMPHOCYTE [1]: 9048.5 CELLS/uL | ABSOLUTE MONOCYTE [1]: 80.17 CELLS/uL | ABSOLUTE SEGMENTED NEUTROPHIL [1]: 1521.67 CELLS/uL | BASOPHIL [1]: 0% | EOSINOPHIL [1]: 0.17% | ERYTHROCYTE COUNT [1]: 5.46 x10E6/uL | HEMATOCRIT [1]: 32.87% | HEMOGLOBIN [1]: 12.95 G/DL | LEUKOCYTE COUNT [1]: 10.68 x10E3/uL | LYMPHOCYTE [1]: 86.67% | MEAN CORPUSCULAR HEMOGLOBIN [1]: 23.72 pg | MEAN CORPUSCULAR HEMOGLOBIN CONCENTRATION [1]: 39.4 G/DL | MEAN CORPUSCULAR VOLUME [1]: 60.18 fL | MONOCYTE [1]: 0.83% | NEUTROPHIL [1]: 12.33% | NUCLEATED RED BLOOD CELLS [1]: 0 /100WBC | PLATELET COUNT [1]: 1211.33 x10E3/uL | ALANINE AMINOTRANSFERASE [1]: 76.67 u/L | ALBUMIN [1]: 3.93 G/DL | ALKALINE PHOSPHATASE [1]: 317.17 u/L | ASPARTATE AMINOTRANSFERASE [1]: 81.17 u/L | BLOOD UREA NITROGEN [1]: 12.33 mg/dL | CARBON DIOXIDE [1]: 31.17 mmol/L | CHLORIDE [1]: 98.33 MEQ/L | CHOLESTEROL [1]: 67.17 mg/dL | CREATINE PHOSPHOKINASE [1]: 312.33 u/L | CREATININE [1]: 0.19 mg/dL | GLUCOSE [1]: 165.5 mg/dL | LACTATE DEHYDROGENASE [1]: 94.5 u/L | LIPASE [1]: 9.83 u/L | PHOSPHORUS [1]: 10.1 mg/dL | POTASSIUM [1]: 5.16 MEQ/L | SODIUM [1]: 143.02 MEQ/L | TOTAL BILIRUBIN [1]: 0.2 mg/dL | TOTAL PROTEIN [1]: 5.88 G/DL | URIC ACID [1]: 0.68 mg/dL | ABSOLUTE BASOPHIL [2]: 0 CELLS/uL | ABSOLUTE EOSINOPHIL [2]: 14.67 CELLS/uL | ABSOLUTE LYMPHOCYTE [2]: 9629.83 CELLS/uL | ABSOLUTE MONOCYTE [2]: 72.5 CELLS/uL | ABSOLUTE SEGMENTED NEUTROPHIL [2]: 1049.67 CELLS/uL | BASOPHIL [2]: 0% | EOSINOPHIL [2]: 0.17% | ERYTHROCYTE COUNT [2]: 5.36 x10E6/uL | HEMATOCRIT [2]: 33.82% | HEMOGLOBIN [2]: 13.48 G/DL | LEUKOCYTE COUNT [2]: 10.77 x10E3/uL | LYMPHOCYTE [2]: 90.17% | MEAN CORPUSCULAR HEMOGLOBIN [2]: 25.28 pg | MEAN CORPUSCULAR HEMOGLOBIN CONCENTRATION [2]: 39.92 G/DL | MEAN CORPUSCULAR VOLUME [2]: 63.3 fL | MONOCYTE [2]: 0.67% | NEUTROPHIL [2]: 9% | NUCLEATED RED BLOOD CELLS [2]: 0.17 /100WBC | PLATELET COUNT [2]: 1275.33 x10E3/uL | ALANINE AMINOTRANSFERASE [2]: 93.67 u/L | ALBUMIN [2]: 4.17 G/DL | ALKALINE PHOSPHATASE [2]: 402.5 u/L | ASPARTATE AMINOTRANSFERASE [2]: 122.83 u/L | BLOOD UREA NITROGEN [2]: 14.75 mg/dL | CARBON DIOXIDE [2]: 26.4 mmol/L | CHLORIDE [2]: 98.5 MEQ/L | CHOLESTEROL [2]: 57.5 mg/dL | CREATINE PHOSPHOKINASE [2]: 305.17 u/L | CREATININE [2]: 0.21 mg/dL | GLUCOSE [2]: 142 mg/dL | LACTATE DEHYDROGENASE [2]: 83.5 u/L | LIPASE [2]: 85.83 u/L | PHOSPHORUS [2]: 8.18 mg/dL | POTASSIUM [2]: 5.46 MEQ/L | SODIUM [2]: 144 MEQ/L | TOTAL BILIRUBIN [2]: 0.25 mg/dL | TOTAL PROTEIN [2]: 5.63 G/DL | URIC ACID [2]: 0.8 mg/dL | ABSOLUTE BASOPHIL [3]: 0 CELLS/uL | ABSOLUTE EOSINOPHIL [3]: 35.67 CELLS/uL | ABSOLUTE LYMPHOCYTE [3]: 8627 CELLS/uL | ABSOLUTE MONOCYTE [3]: 90.33 CELLS/uL | ABSOLUTE SEGMENTED NEUTROPHIL [3]: 547 CELLS/uL | BASOPHIL [3]: 0% | EOSINOPHIL [3]: 0.33% | ERYTHROCYTE COUNT [3]: 5.35 x10E6/uL | HEMATOCRIT [3]: 33.47% | HEMOGLOBIN [3]: 13.5 G/DL | LEUKOCYTE COUNT [3]: 9.3 x10E3/uL | LYMPHOCYTE [3]: 92.67% | MEAN CORPUSCULAR HEMOGLOBIN [3]: 25.27 pg | MEAN CORPUSCULAR HEMOGLOBIN CONCENTRATION [3]: 40.33 G/DL | MEAN CORPUSCULAR VOLUME [3]: 62.63 fL | MONOCYTE [3]: 1% | NEUTROPHIL [3]: 6% | NUCLEATED RED BLOOD CELLS [3]: 0 /100WBC | PLATELET COUNT [3]: 906.33 x10E3/uL | ALANINE AMINOTRANSFERASE [3]: 76.33 u/L | ALBUMIN [3]: 4 G/DL | ALKALINE PHOSPHATASE [3]: 385 u/L | ASPARTATE AMINOTRANSFERASE [3]: 87 u/L | BLOOD UREA NITROGEN [3]: 12 mg/dL | CARBON DIOXIDE [3]: 31.67 mmol/L | CHLORIDE [3]: 98 MEQ/L | CHOLESTEROL [3]: 61 mg/dL | CREATINE PHOSPHOKINASE [3]: 318 u/L | CREATININE [3]: 0.17 mg/dL | GLUCOSE [3]: 154 mg/dL | LACTATE DEHYDROGENASE [3]: 114.33 u/L | LIPASE [3]: 9.67 u/L | PHOSPHORUS [3]: 10.63 mg/dL | POTASSIUM [3]: 5.46 MEQ/L | SODIUM [3]: 142.7 MEQ/L | TOTAL BILIRUBIN [3]: 0.17 mg/dL | TOTAL PROTEIN [3]: 5.73 G/DL | URIC ACID [3]: 0.77 mg/dL
